# Results published in PubChem BioAssay AID2060887 (Molecular Pharmacology Branch, DTP, NCI, 2025).
# Test system: 782815-120-R-J1-PDC complex spheroid viability
# Experiment: Anticancer human tumor 782815-120-R-J1-PDC patient-derived colon adenocarcinoma cell line growth inhibition [RAS]
# Settings: for IC50: curve of first compound; for viability, T/C: stronger effect = lower value
# How it was run: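 Tumour cells grown as complex spheroids with HUVEC endothelial cells and mesenchymal stem cells, treated with RAS pathway inhibitor combinations. Each agent spans half-log steps from near clinical Cmax, or 10 microM where Cmax is unknown.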
# [1] = second compound 0.00316 µM, first compound 0.0316 µM
# [2] = second compound 0.00316 µM, first compound 0.1 µM
# [3] = second compound 0.00316 µM, first compound 0.316 µM
# [4] = second compound 0.00316 µM, first compound 1 µM
# [5] = second compound 0.00316 µM, first compound 3.16 µM
# [6] = second compound 0.00316 µM, first compound 10 µM
# [7] = second compound 0.01 µM, first compound 0.0316 µM
# [8] = second compound 0.01 µM, first compound 0.1 µM
# [9] = second compound 0.01 µM, first compound 0.316 µM
# [10] = second compound 0.01 µM, first compound 1 µM
# [11] = second compound 0.01 µM, first compound 3.16 µM
# [12] = second compound 0.01 µM, first compound 10 µM
# [13] = second compound 0.0316 µM, first compound 0.0316 µM
# [14] = second compound 0.0316 µM, first compound 0.1 µM
# [15] = second compound 0.0316 µM, first compound 0.316 µM
# [16] = second compound 0.0316 µM, first compound 1 µM
# [17] = second compound 0.0316 µM, first compound 3.16 µM
# [18] = second compound 0.0316 µM, first compound 10 µM
# [19] = second compound 0.1 µM, first compound 0.0316 µM
# [20] = second compound 0.1 µM, first compound 0.1 µM
# [21] = second compound 0.1 µM, first compound 0.316 µM
# [22] = second compound 0.1 µM, first compound 1 µM
# [23] = second compound 0.1 µM, first compound 3.16 µM
# [24] = second compound 0.1 µM, first compound 10 µM
# [25] = second compound 0.316 µM, first compound 0.0316 µM
# [26] = second compound 0.316 µM, first compound 0.1 µM
# [27] = second compound 0.316 µM, first compound 0.316 µM
# [28] = second compound 0.316 µM, first compound 1 µM
# [29] = second compound 0.316 µM, first compound 3.16 µM
# [30] = second compound 0.316 µM, first compound 10 µM
# [31] = second compound 1 µM, first compound 0.0316 µM
# [32] = second compound 1 µM, first compound 0.1 µM
# [33] = second compound 1 µM, first compound 0.316 µM
# [34] = second compound 1 µM, first compound 1 µM
# [35] = second compound 1 µM, first compound 3.16 µM
# [36] = second compound 1 µM, first compound 10 µM
# 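Further: spheroids exposed to compounds for 7 days before reading.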
# 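Wherever viability, T/C is given: 100% = DMSO vehicle control viability.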
smiles,measurement,setting,value
Cc1nc(N2CCC3(CC2)COC(C)C3N)c(CO)nc1Sc1ccnc(N)c1Cl (stereo unspecified) + C=CC(=O)N1CCN(c2nc(OCC3CCCN3C)nc3c(F)c(-c4nc(N)cc(C)c4C(F)(F)F)c(Cl)cc23)C(C)C1,IC50,second compound 0.00316 µM,> 10 µM
same,IC50,second compound 0.01 µM,> 10 µM
same,IC50,second compound 0.0316 µM,> 10 µM
same,IC50,second compound 0.1 µM,> 10 µM
same,IC50,second compound 0.316 µM,> 10 µM
same,IC50,second compound 1 µM,> 10 µM
same,"viability, T/C",[1],92.3%
same,"viability, T/C",[2],107%
same,"viability, T/C",[3],97.4%
same,"viability, T/C",[4],96%
same,"viability, T/C",[5],106%
same,"viability, T/C",[6],101%
same,"viability, T/C",[7],103%
same,"viability, T/C",[8],115%
same,"viability, T/C",[9],96.2%
same,"viability, T/C",[10],108%
same,"viability, T/C",[11],104%
same,"viability, T/C",[12],100%
same,"viability, T/C",[13],101%
same,"viability, T/C",[14],98.9%
same,"viability, T/C",[15],97.8%
same,"viability, T/C",[16],97.3%
same,"viability, T/C",[17],95.1%
same,"viability, T/C",[18],101%
same,"viability, T/C",[19],98.7%
same,"viability, T/C",[20],110%
same,"viability, T/C",[21],98.1%
same,"viability, T/C",[22],105%
same,"viability, T/C",[23],104%
same,"viability, T/C",[24],97.9%
same,"viability, T/C",[25],103%
same,"viability, T/C",[26],102%
same,"viability, T/C",[27],103%
same,"viability, T/C",[28],105%
same,"viability, T/C",[29],108%
same,"viability, T/C",[30],102%
same,"viability, T/C",[31],98.6%
same,"viability, T/C",[32],102%
same,"viability, T/C",[33],95.8%
same,"viability, T/C",[34],100%
same,"viability, T/C",[35],99.9%
same,"viability, T/C",[36],104%
O=C(c1ccc(F)c(F)c1Nc1ccc(I)cc1F)N1CC(O)([C@@H]2CCCCN2)C1 + CCn1c(-c2cc(N3CCN(C)CC3)cnc2C(C)OC)c2c3cc(ccc31)-c1csc(n1)CC(NC(=O)C1CC1C)C(=O)N1CCCC(N1)C(=O)OCC(C)(C)C2,IC50,second compound 0.000949 µM,0.0241 µM
same,IC50,second compound 0.003 µM,0.00551 µM
same,IC50,second compound 0.00949 µM,< 0.00316 µM
same,IC50,second compound 0.03 µM,< 0.00316 µM
same,IC50,second compound 0.0949 µM,< 0.00316 µM
same,IC50,second compound 0.3 µM,< 0.00316 µM
same,"viability, T/C","second compound 0.000949 µM, first compound 0.00316 µM",75.1%
same,"viability, T/C","second compound 0.000949 µM, first compound 0.01 µM",64.1%
same,"viability, T/C","second compound 0.000949 µM, first compound 0.0316 µM",46.5%
same,"viability, T/C","second compound 0.000949 µM, first compound 0.1 µM",23.2%
same,"viability, T/C","second compound 0.000949 µM, first compound 0.316 µM",13%
same,"viability, T/C","second compound 0.000949 µM, first compound 1 µM",1.01%
same,"viability, T/C","second compound 0.003 µM, first compound 0.00316 µM",59.4%
same,"viability, T/C","second compound 0.003 µM, first compound 0.01 µM",37.5%
same,"viability, T/C","second compound 0.003 µM, first compound 0.0316 µM",32.3%
same,"viability, T/C","second compound 0.003 µM, first compound 0.1 µM",17.9%
same,"viability, T/C","second compound 0.003 µM, first compound 0.316 µM",6.64%
same,"viability, T/C","second compound 0.003 µM, first compound 1 µM",0.53%
same,"viability, T/C","second compound 0.00949 µM, first compound 0.00316 µM",28.2%
same,"viability, T/C","second compound 0.00949 µM, first compound 0.01 µM",24.9%
same,"viability, T/C","second compound 0.00949 µM, first compound 0.0316 µM",13.7%
same,"viability, T/C","second compound 0.00949 µM, first compound 0.1 µM",8.14%
same,"viability, T/C","second compound 0.00949 µM, first compound 0.316 µM",1.43%
same,"viability, T/C","second compound 0.00949 µM, first compound 1 µM",0.48%
same,"viability, T/C","second compound 0.03 µM, first compound 0.00316 µM",12.3%
same,"viability, T/C","second compound 0.03 µM, first compound 0.01 µM",9.75%
same,"viability, T/C","second compound 0.03 µM, first compound 0.0316 µM",3.83%
same,"viability, T/C","second compound 0.03 µM, first compound 0.1 µM",1.67%
same,"viability, T/C","second compound 0.03 µM, first compound 0.316 µM",0.8%
same,"viability, T/C","second compound 0.03 µM, first compound 1 µM",0.47%
same,"viability, T/C","second compound 0.0949 µM, first compound 0.00316 µM",5.71%
same,"viability, T/C","second compound 0.0949 µM, first compound 0.01 µM",2.85%
same,"viability, T/C","second compound 0.0949 µM, first compound 0.0316 µM",2.06%
same,"viability, T/C","second compound 0.0949 µM, first compound 0.1 µM",1.08%
same,"viability, T/C","second compound 0.0949 µM, first compound 0.316 µM",0.77%
same,"viability, T/C","second compound 0.0949 µM, first compound 1 µM",0.49%
same,"viability, T/C","second compound 0.3 µM, first compound 0.00316 µM",6.59%
same,"viability, T/C","second compound 0.3 µM, first compound 0.01 µM",1.81%
same,"viability, T/C","second compound 0.3 µM, first compound 0.0316 µM",1.42%
same,"viability, T/C","second compound 0.3 µM, first compound 0.1 µM",0.75%
same,"viability, T/C","second compound 0.3 µM, first compound 0.316 µM",0.63%
same,"viability, T/C","second compound 0.3 µM, first compound 1 µM",0.61%
CC1(O)CCCC1n1c(=O)c(C(F)F)cc2cnc(NC3CCN(S(C)(=O)=O)CC3)nc21 (stereo unspecified) + C=CC(=O)N1CCN(c2nc(OCC3CCCN3C)nc3c(F)c(-c4nc(N)cc(C)c4C(F)(F)F)c(Cl)cc23)C(C)C1,IC50,second compound 0.00316 µM,3.64 µM
same,IC50,second compound 0.01 µM,2.36 µM
same,IC50,second compound 0.0316 µM,3.38 µM
same,IC50,second compound 0.1 µM,3.61 µM
same,IC50,second compound 0.316 µM,3.45 µM
same,IC50,second compound 1 µM,0.786 µM
same,"viability, T/C",[1],61.5%
same,"viability, T/C",[2],53%
same,"viability, T/C",[3],54.5%
same,"viability, T/C",[4],57.6%
same,"viability, T/C",[5],53.8%
same,"viability, T/C",[6],22%
same,"viability, T/C",[7],72.5%
same,"viability, T/C",[8],52.3%
same,"viability, T/C",[9],53.3%
same,"viability, T/C",[10],51.8%
same,"viability, T/C",[11],52.1%
same,"viability, T/C",[12],19%
same,"viability, T/C",[13],58.7%
same,"viability, T/C",[14],56.4%
same,"viability, T/C",[15],49.2%
same,"viability, T/C",[16],55.1%
same,"viability, T/C",[17],51.8%
same,"viability, T/C",[18],22.1%
same,"viability, T/C",[19],65.4%
same,"viability, T/C",[20],50.7%
same,"viability, T/C",[21],51.3%
same,"viability, T/C",[22],52.3%
same,"viability, T/C",[23],54.2%
same,"viability, T/C",[24],18.6%
same,"viability, T/C",[25],56.4%
same,"viability, T/C",[26],52.8%
same,"viability, T/C",[27],48.9%
same,"viability, T/C",[28],50.9%
same,"viability, T/C",[29],53.4%
same,"viability, T/C",[30],19.8%
same,"viability, T/C",[31],61%
same,"viability, T/C",[32],55.7%
same,"viability, T/C",[33],47.5%
same,"viability, T/C",[34],46.7%
same,"viability, T/C",[35],44.9%
same,"viability, T/C",[36],18.3%
